# Test results from US8735409B2, “Quinazoline derivatives” (priority 2009, dated 2014).
# Test: Stability in Human Liver Microsomes
# Format: in vitro ADME
# Conditions: pooled human liver microsomes 0.5 mg/mL protein, 1 mM NADPH, 37° C., N=1; for half-life: both sexes
# Method: The liver microsomes stability of compounds of Examples 1-4 was compared with that of TOVOK, and the compound of Example 5 with CUDC-101.
# The metabolic stability of compounds of the invention was tested using pooled liver microsomes prepared from mixed-gender humans, with 1 mM NADPH. The samples were analyzed using an LTQ-Orbitrap XL mass spectrometer. HRMS was used to determine the peak area response ratio (peak area corresponding to test compound or control divided by that of an analytical internal standard) without running a standard curve. HRMS scan was performed in an appropriate m/z range in order to detect all plausible metabolites
# The assay was run with a single incubation (N=1). Incubated test compounds at 37° C. in buffer containing 0.5 mg/mL microsomal protein. Initiated the reaction by adding cofactors, sampling at 0, 10, 20, 30, and 60 minutes, Incubated positive control (5 μM testosterone) in parallel and sampling at 0, 10, and 30 minutes.
# The control compound testosterone was run in parallel to verify the enzymatic activity of the microsomes. After the final time point, fluorimetry was used to confirm the addition of NADPH to the reaction mixture. T1/2 of control met the internal acceptance criteria.
# • Liquid Chromatography • Column: Thermo BDS Hypersil C18 30×2.0 mm, 3 μm, with guard column • M.P. Buffer: 25 mM ammonium formate buffer, pH 3.5 • Aqueous Reservoir (A): 90% water, 10% buffer • Organic Reservoir (B): 90% acetonitrile, 10% buffer • Flow Rate: 300 μL/minute • Gradient Program:
# • Total Run Time: 3.5 minutes • Autosampler: 10 μL Injection Volume • Autosampler Wash: water/methanol/2-propanol: 1/1/1; with 0.2% formic acid • Mass Spectrometer • Instrument: PE SCIEX API 3000 • Interface: Turbo Ionspray • Mode: Multiple Reaction Monitoring • Method: 3.5 minute duration
half-life,SMILES,Percentage remaining 0 min,Percentage remaining 10 min,Percentage remaining 20 min,Percentage remaining 30 min,Percentage remaining 60 min,Half life
> 1 h,"CN(C)C/C=C/C(=O)Nc1cc2c(Nc3ccc(F)c(Cl)c3)ncnc2cc1O[C@H]1CCOC1 [TOVOK, reference compound]",100%,95%,85%,75%,60%,
,"[2H]C1(Oc2cc3ncnc(Nc4ccc(F)c(Cl)c4)c3cc2NC(=O)/C=C/CN(C)C)CCOC1 (stereo not drawn) [Example 3, (E)-N-(4-(3-chloro-4-fluorophenylamino)-7-((3-D)-tetrahydrofuran-3-yloxy)quinazolin-6-yl)-4-(dimethylamino)but-2-enamide]",100%,97%,89%,84%,73%,>1 h
,"[2H]C([2H])([2H])N(C/C=C/C(=O)Nc1cc2c(Nc3cccc(C#C)c3)ncnc2cc1O[C@H]1CCOC1)C([2H])([2H])[2H] [Example 2, (S,E)-4-(D6-dimethylamino)-N-(4-(3-ethynylphenylamino)-7-(tetrahydrofuran-3-yloxy)quinazolin-6-yl)but-2-enamide]",100%,95%,87%,80%,67%,>1 h
,"[2H]C([2H])([2H])N(C/C=C/C(=O)Nc1cc2c(Nc3ccc(F)c(Cl)c3)ncnc2cc1O[C@H]1CCOC1)C([2H])([2H])[2H] [Example 1, (S,E)-N-(4-(3-chloro-4-fluorophenylamino)-7-(tetrahydrofuran-3-yloxy)quinazolin-6-yl)-4-(D6-dimethylamino)but-2-enamide]",100%,97%,90%,85%,75%,>1 h
,"[2H]C1(Oc2cc3ncnc(Nc4cccc(C#C)c4)c3cc2NC(=O)/C=C/CN(C)C)CCOC1 [Example 4, (E)-4-(dimethylamino)-N-(4-(3-ethynylphenylamino)-7-(3-D-tetrahydrofuran-3-yloxy)quinazolin-6-yl)but-2-enamide]",100%,94%,87%,79%,70%,>1 h
0.333 h,"C#Cc1cccc(Nc2ncnc3cc(OC)c(OCCCCCCC(=O)NO)cc23)c1 [CUDC-101, reference compound]",100%,74%,48%,35%,14%,
0.467 h,"[2H]C([2H])([2H])Oc1cc2ncnc(Nc3cccc(C#C)c3)c2cc1OCCCCCCC(=O)NO [Example 5, 7-(4-(3-ethynylphenylamino)-7-(D3-methoxy)quinazolin-6-yloxy)-N-hydroxyheptanamide]",100%,85%,68%,48%,25%,
